Read-outs that look alike come from different tables or passages of the source.
Tests used:
[1] = test system: reactive oxygen species; format: cell-based, mouse
[2] = test system: OXPHOS gene expression; format: cell-based, mouse; details: Conc 20 μM
[3] = test system: nuOXPHOS transcripts; format: cell-based, mouse; details: for nucOXPHOS Z: Table 7, C2C12 myotubes, 48 h, composite Z-score
[4] = test system: mtOXPHOS transcripts; format: cell-based, mouse; details: for mito-OXPHOS Z: Table 7, C2C12 myotubes, 48 h, composite Z-score
[5] = test system: cytochrome c; format: cell-based, mouse
[6] = test system: C2C12 myotubes
[7] = test system: cellular dehydrogenase activity
[8] = test system: mitochondrial membrane potential; format: cell-based, mouse
[9] = composite Z-score vs DMSO, Conc 20 μM
[10] = normalized composite Z-score vs mock-treated (DMSO) wells, Conc 20 μM

## COc1cc(OC)c2c(=O)c(-c3ccccc3)coc2c1 [5,7-dimethoxyisoflavone]
[1]; [9]
  ROS: 0.573
[2]; composite Z-score vs DMSO
  GE-HTS: 0.945
[3]; [9]
  nucOX: 0.916
[4]; [9]
  mitoOX: 0.773
[5]; [9]
  cyt c: 0.046
[6]; [9]
  Viability: −0.298
[7]; [9]
  MTT: −1.335

## C[C@H]1O[C@@H](n2cc(F)c(=O)[nH]c2=O)[C@H](O)[C@@H]1O [5-fluoro-5′-deoxyuridine]
[8]; [9]
  ΔΨm: −0.828
[1]; [9]
  ROS: 0.337
[2]; composite Z-score vs DMSO
  GE-HTS: −0.336
[3]; [9]
  nucOX: −0.284
[4]; [9]
  mitoOX: −0.387
[5]; [9]
  cyt c: 0.338
[7]; [9]
  MTT: −2.176

## C[C@]12CCC(=O)C[C@@H]1CC[C@@H]1[C@@H]2CC[C@]2(C)C(=O)CC[C@@H]12 [5alpha-androstan-3,17-dione]
[8]
  ΔΨm: 0.107
[1]
  ROS: 0.649
[3]
  nucOX: −0.426
[4]
  mitoOX: −0.509
[5]
  cyt c: 0.048
[6]
  Viability: −0.579
[7]
  MTT: −0.601

## C=C1CCC=C(C)C(=O)CC2C(C)CC12 (stereo not shown) [15-norcaryophyllen-3-one]
[8]; [10]
  ΔΨm: 0.034
[1]; [10]
  ROS: −0.667
[2]; normalized composite Z-score vs mock-treated (DMSO) wells
  GE-HTS: −0.016
[3]; [10]
  nucOX: −0.076
[4]; [10]
  mitoOX: 0.137
[5]; [10]
  cyt c: 0.656
[6]; [10]
  Viability: 0.557

## CO[C@H]1C=C[C@@]23c4cc5c(cc4CN(C[C@@H]2O)[C@H]3C1)OCO5 [Crinamine, reference compound]
[3]
  nucOXPHOS Z: 2.27
[4]
  mito-OXPHOS Z: −2.89

## CCN(CC)C(=S)SSC(=S)N(CC)CC [Disulfiram, reference compound]
[3]
  nucOXPHOS Z: −4.10
[4]
  mito-OXPHOS Z: 0.93

## COc1cccc2c1C(=O)c1c(O)c3c(c(O)c1C2=O)C[C@@](O)(C(=O)CO)C[C@@H]3O[C@H]1C[C@H](N)[C@H](O)[C@H](C)O1 [Doxorubicin, reference compound]
[3]
  nucOXPHOS Z: −1.85
[4]
  mito-OXPHOS Z: 2.57

## O=c1[nH]cc(F)c(=O)[nH]1 [Fluorouracil, reference compound]
[3]
  nucOXPHOS Z: 1.50
[4]
  mito-OXPHOS Z: 1.55

## COc1ccc2c(c1)c(CC(=O)O)c(C)n2C(=O)c1ccc(Cl)cc1 [Indomethacin, reference compound]
[3]
  nucOXPHOS Z: 1.32
[4]
  mito-OXPHOS Z: 2.40

## CC1=CC(=O)c2ccccc2C1=O [Menadione, reference compound]
[3]
  nucOXPHOS Z: −3.40
[4]
  mito-OXPHOS Z: 2.13

## Nc1cc(N2CCCCC2)nc(N)[n+]1[O-] [Minoxidil, reference compound]
[3]
  nucOXPHOS Z: 2.38
[4]
  mito-OXPHOS Z: 1.37

## CN(C)C(=O)Oc1cccc([N+](C)(C)C)c1 [Neostigmine, reference compound]
[3]
  nucOXPHOS Z: −3.54
[4]
  mito-OXPHOS Z: −3.45

## N=C1C=CC(=C(c2ccc(N)cc2)c2ccc(N)cc2)C=C1 [Pararosaniline, reference compound]
[3]
  nucOXPHOS Z: −2.25
[4]
  mito-OXPHOS Z: −5.43

## CC[C@@]1(O)C[C@H](O[C@H]2C[C@H](N(C)C)[C@H](O)[C@H](C)O2)c2c(cc3c(c2O)C(=O)c2c(O)ccc(O)c2C3=O)[C@H]1C(=O)OC [Pyrromycin, reference compound]
[3]
  nucOXPHOS Z: −2.89
[4]
  mito-OXPHOS Z: −2.67

## CCN(CC)CCCC(C)Nc1c2ccc(Cl)cc2nc2ccc(OC)cc12 (stereo not shown) [Quinacrine, reference compound]
[3]
  nucOXPHOS Z: −2.65
[4]
  mito-OXPHOS Z: −2.81

## CC(C)[C@]12O[C@H]1[C@@H]1O[C@@]13[C@@]1(C)CCC4=C(COC4=O)[C@@H]1C[C@@H]1O[C@@]13C2=O [Triptonide, reference compound]
[3]
  nucOXPHOS Z: −2.18
[4]
  mito-OXPHOS Z: 5.02

Source: patent US20090143279A1 (priority 2007, published 2009)
